Experimental data taken from the supplement of paper PMC10307832.

What was measured:
Assay in all cases: relative viability (nuclei count vs DMSO), 5 days (fraction); higher = more cells survive
BGJ398 + AZD7762 = compound: CCN1CCN(c2ccc(Nc3cc(N(C)C(=O)Nc4c(Cl)c(OC)cc(OC)c4Cl)ncn3)cc2)CC1 [BGJ398] + NC(=O)Nc1cc(-c2cccc(F)c2)sc1C(=O)N[C@H]1CCCNC1 [AZD7762] (partner 0.2 µM)
Procedure, shortened: (§1)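 Dosing by pin tool came one day after lung cancer cell lines were seeded in 1536-well plates, using either one drug or a fixed anchor-drug dose plus five library-drug doses (not always all listed) in √10 steps. After 5 days, nuclei were counted on 4× images. Relative viability is treated-well nuclei count divided by vehicle-well nuclei count, and values are medians of duplicate plates.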

[1] = compound: C1=CC2=NC=CN=C2C=C1/C=C/3\C(=O)NC(=O)S3 + CCNC(=O)c1noc(-c2cc(C(C)C)c(O)cc2O)c1-c1ccc(CN2CCOCC2)cc1 [Luminespib] (partner 0.01 µM)
Procedure, shortened: as §1

BGJ398 + Pictilisib = compound: CCN1CCN(c2ccc(Nc3cc(N(C)C(=O)Nc4c(Cl)c(OC)cc(OC)c4Cl)ncn3)cc2)CC1 [BGJ398] + CS(=O)(=O)N1CCN(Cc2cc3nc(-c4cccc5[nH]ncc45)nc(N4CCOCC4)c3s2)CC1 [Pictilisib] (partner 1 µM)
Procedure, shortened: as §1

[2] = compound: C1=CC2=NC=CN=C2C=C1/C=C/3\C(=O)NC(=O)S3 + O=C(c1cc(Cc2n[nH]c(=O)c3ccccc23)ccc1F)N1CCN(C(=O)C2CC2)CC1 [Olaparib] (partner 8 µM)
Procedure, shortened: as §1

NCI-H647
relative viability (BGJ398 + AZD7762; first compound 0.01 µM): 0.642 | relative viability (BGJ398 + AZD7762; first compound 0.03162 µM): 0.489 | relative viability (BGJ398 + AZD7762; first compound 0.1 µM): 0.497 | relative viability (BGJ398 + AZD7762; first compound 0.3162 µM): 0.326 | relative viability (BGJ398 + AZD7762; first compound 1 µM): 0.373 | relative viability ([1]; first compound 0.02 µM): 0.173 | relative viability ([1]; first compound 0.06325 µM): 0.196 | relative viability ([1]; first compound 0.2 µM): 0.168 | relative viability ([1]; first compound 0.6325 µM): 0.127 | relative viability ([1]; first compound 2 µM): 0.102 | relative viability (BGJ398 + Pictilisib; first compound 0.01 µM): 0.406 | relative viability (BGJ398 + Pictilisib; first compound 0.03162 µM): 0.511 | relative viability (BGJ398 + Pictilisib; first compound 0.1 µM): 0.38 | relative viability (BGJ398 + Pictilisib; first compound 0.3162 µM): 0.401 | relative viability (BGJ398 + Pictilisib; first compound 1 µM): 0.29 | relative viability ([2]; first compound 0.02 µM): 0.438 | relative viability ([2]; first compound 0.06325 µM): 0.532 | relative viability ([2]; first compound 0.2 µM): 0.537 | relative viability ([2]; first compound 0.6325 µM): 0.51 | relative viability ([2]; first compound 2 µM): 0.496

NCI-H1792
relative viability (BGJ398 + AZD7762; first compound 0.01 µM): 0.678 | relative viability (BGJ398 + AZD7762; first compound 0.03162 µM): 0.595 | relative viability (BGJ398 + AZD7762; first compound 0.1 µM): 0.784 | relative viability (BGJ398 + AZD7762; first compound 0.3162 µM): 0.646 | relative viability (BGJ398 + AZD7762; first compound 1 µM): 0.718 | relative viability ([1]; first compound 0.02 µM): 0.418 | relative viability ([1]; first compound 0.06325 µM): 0.29 | relative viability ([1]; first compound 0.2 µM): 0.453 | relative viability ([1]; first compound 0.6325 µM): 0.436 | relative viability ([1]; first compound 2 µM): 0.374 | relative viability (BGJ398 + Pictilisib; first compound 0.01 µM): 0.229 | relative viability (BGJ398 + Pictilisib; first compound 0.03162 µM): 0.32 | relative viability (BGJ398 + Pictilisib; first compound 0.1 µM): 0.26 | relative viability (BGJ398 + Pictilisib; first compound 0.3162 µM): 0.238 | relative viability (BGJ398 + Pictilisib; first compound 1 µM): 0.138 | relative viability ([2]; first compound 0.02 µM): 0.319 | relative viability ([2]; first compound 0.2 µM): 0.347 | relative viability ([2]; first compound 0.6325 µM): 0.408 | relative viability ([2]; first compound 2 µM): 0.315

ChaGo-K-1
relative viability (BGJ398 + AZD7762; first compound 0.01 µM): 0.904 | relative viability (BGJ398 + AZD7762; first compound 0.03162 µM): 0.85 | relative viability (BGJ398 + AZD7762; first compound 0.1 µM): 0.903 | relative viability (BGJ398 + AZD7762; first compound 0.3162 µM): 0.898 | relative viability (BGJ398 + AZD7762; first compound 1 µM): 0.881 | relative viability ([1]; first compound 0.02 µM): 0.553 | relative viability ([1]; first compound 0.06325 µM): 0.454 | relative viability ([1]; first compound 0.2 µM): 0.762 | relative viability ([1]; first compound 0.6325 µM): 0.541 | relative viability ([1]; first compound 2 µM): 0.572 | relative viability (BGJ398 + Pictilisib; first compound 0.01 µM): 0.802 | relative viability (BGJ398 + Pictilisib; first compound 0.03162 µM): 0.702 | relative viability (BGJ398 + Pictilisib; first compound 0.1 µM): 0.561 | relative viability (BGJ398 + Pictilisib; first compound 0.3162 µM): 0.608 | relative viability (BGJ398 + Pictilisib; first compound 1 µM): 0.314 | relative viability ([2]; first compound 0.02 µM): 0.385 | relative viability ([2]; first compound 0.06325 µM): 0.351 | relative viability ([2]; first compound 0.2 µM): 0.431 | relative viability ([2]; first compound 0.6325 µM): 0.412 | relative viability ([2]; first compound 2 µM): 0.412

LOU-NH91
relative viability (BGJ398 + AZD7762; first compound 0.01 µM): 0.753 | relative viability (BGJ398 + AZD7762; first compound 0.03162 µM): 0.779 | relative viability (BGJ398 + AZD7762; first compound 0.1 µM): 0.752 | relative viability (BGJ398 + AZD7762; first compound 0.3162 µM): 0.664 | relative viability (BGJ398 + AZD7762; first compound 1 µM): 0.762 | relative viability ([1]; first compound 0.02 µM): 0.363 | relative viability ([1]; first compound 0.06325 µM): 0.344 | relative viability ([1]; first compound 0.2 µM): 0.334 | relative viability ([1]; first compound 0.6325 µM): 0.346 | relative viability ([1]; first compound 2 µM): 0.314 | relative viability (BGJ398 + Pictilisib; first compound 0.01 µM): 0.515 | relative viability (BGJ398 + Pictilisib; first compound 0.03162 µM): 0.524 | relative viability (BGJ398 + Pictilisib; first compound 0.1 µM): 0.52 | relative viability (BGJ398 + Pictilisib; first compound 0.3162 µM): 0.484 | relative viability (BGJ398 + Pictilisib; first compound 1 µM): 0.453 | relative viability ([2]; first compound 0.02 µM): 0.845 | relative viability ([2]; first compound 0.06325 µM): 0.925 | relative viability ([2]; first compound 0.2 µM): 0.892 | relative viability ([2]; first compound 0.6325 µM): 0.883 | relative viability ([2]; first compound 2 µM): 0.85

NCI-H2405
relative viability (BGJ398 + AZD7762; first compound 0.01 µM): 0.84 | relative viability (BGJ398 + AZD7762; first compound 0.03162 µM): 0.857 | relative viability (BGJ398 + AZD7762; first compound 0.1 µM): 0.781 | relative viability (BGJ398 + AZD7762; first compound 0.3162 µM): 0.757 | relative viability (BGJ398 + AZD7762; first compound 1 µM): 0.656 | relative viability ([1]; first compound 0.02 µM): 0.783 | relative viability ([1]; first compound 0.06325 µM): 0.598 | relative viability ([1]; first compound 0.2 µM): 0.6 | relative viability ([1]; first compound 0.6325 µM): 0.699 | relative viability ([1]; first compound 2 µM): 0.424 | relative viability (BGJ398 + Pictilisib; first compound 0.01 µM): 0.406 | relative viability (BGJ398 + Pictilisib; first compound 0.03162 µM): 0.587 | relative viability (BGJ398 + Pictilisib; first compound 0.1 µM): 0.42 | relative viability (BGJ398 + Pictilisib; first compound 0.3162 µM): 0.482 | relative viability (BGJ398 + Pictilisib; first compound 1 µM): 0.421 | relative viability ([2]; first compound 0.02 µM): 0.791 | relative viability ([2]; first compound 0.06325 µM): 0.999 | relative viability ([2]; first compound 0.2 µM): 0.851 | relative viability ([2]; first compound 0.6325 µM): 0.848 | relative viability ([2]; first compound 2 µM): 0.712

LCLC-97TM1
relative viability (BGJ398 + AZD7762; first compound 0.01 µM): 0.251 | relative viability (BGJ398 + AZD7762; first compound 0.03162 µM): 0.217 | relative viability (BGJ398 + AZD7762; first compound 0.1 µM): 0.225 | relative viability (BGJ398 + AZD7762; first compound 0.3162 µM): 0.208 | relative viability (BGJ398 + AZD7762; first compound 1 µM): 0.249 | relative viability ([1]; first compound 0.02 µM): 0.767 | relative viability ([1]; first compound 0.06325 µM): 0.839 | relative viability ([1]; first compound 0.2 µM): 0.823 | relative viability ([1]; first compound 0.6325 µM): 0.671 | relative viability ([1]; first compound 2 µM): 0.499 | relative viability (BGJ398 + Pictilisib; first compound 0.01 µM): 0.186 | relative viability (BGJ398 + Pictilisib; first compound 0.03162 µM): 0.189 | relative viability (BGJ398 + Pictilisib; first compound 0.1 µM): 0.207 | relative viability (BGJ398 + Pictilisib; first compound 0.3162 µM): 0.298 | relative viability (BGJ398 + Pictilisib; first compound 1 µM): 0.163 | relative viability ([2]; first compound 0.02 µM): 0.354 | relative viability ([2]; first compound 0.06325 µM): 0.372 | relative viability ([2]; first compound 0.2 µM): 0.36 | relative viability ([2]; first compound 0.6325 µM): 0.334 | relative viability ([2]; first compound 2 µM): 0.281

NCI-H596
relative viability (BGJ398 + AZD7762; first compound 0.01 µM): 1.1 | relative viability (BGJ398 + AZD7762; first compound 0.03162 µM): 0.993 | relative viability (BGJ398 + AZD7762; first compound 0.1 µM): 0.893 | relative viability (BGJ398 + AZD7762; first compound 0.3162 µM): 0.911 | relative viability (BGJ398 + AZD7762; first compound 1 µM): 0.799 | relative viability ([1]; first compound 0.02 µM): 1.13 | relative viability ([1]; first compound 0.06325 µM): 1.13 | relative viability ([1]; first compound 0.2 µM): 1.15 | relative viability ([1]; first compound 0.6325 µM): 0.991 | relative viability ([1]; first compound 2 µM): 0.939 | relative viability (BGJ398 + Pictilisib; first compound 0.01 µM): 0.367 | relative viability (BGJ398 + Pictilisib; first compound 0.03162 µM): 0.416 | relative viability (BGJ398 + Pictilisib; first compound 0.1 µM): 0.355 | relative viability (BGJ398 + Pictilisib; first compound 0.3162 µM): 0.389 | relative viability (BGJ398 + Pictilisib; first compound 1 µM): 0.321 | relative viability ([2]; first compound 0.02 µM): 0.712 | relative viability ([2]; first compound 0.06325 µM): 0.719 | relative viability ([2]; first compound 0.2 µM): 0.677 | relative viability ([2]; first compound 0.6325 µM): 0.726 | relative viability ([2]; first compound 2 µM): 0.729

NCI-H727
relative viability (BGJ398 + AZD7762; first compound 0.01 µM): 0.996 | relative viability (BGJ398 + AZD7762; first compound 0.03162 µM): 0.693 | relative viability (BGJ398 + AZD7762; first compound 0.1 µM): 0.574 | relative viability (BGJ398 + AZD7762; first compound 0.3162 µM): 0.468 | relative viability (BGJ398 + AZD7762; first compound 1 µM): 0.486 | relative viability ([1]; first compound 0.02 µM): 0.427 | relative viability ([1]; first compound 0.06325 µM): 0.496 | relative viability ([1]; first compound 0.2 µM): 0.403 | relative viability ([1]; first compound 0.6325 µM): 0.444 | relative viability ([1]; first compound 2 µM): 0.265 | relative viability (BGJ398 + Pictilisib; first compound 0.01 µM): 0.455 | relative viability (BGJ398 + Pictilisib; first compound 0.03162 µM): 0.504 | relative viability (BGJ398 + Pictilisib; first compound 0.1 µM): 0.176 | relative viability (BGJ398 + Pictilisib; first compound 0.3162 µM): 0.316 | relative viability (BGJ398 + Pictilisib; first compound 1 µM): 0.293 | relative viability ([2]; first compound 0.02 µM): 0.852 | relative viability ([2]; first compound 0.06325 µM): 0.579 | relative viability ([2]; first compound 0.2 µM): 0.637 | relative viability ([2]; first compound 0.6325 µM): 0.695 | relative viability ([2]; first compound 2 µM): 0.538
